Measurements: US20230151034A1 (COCRYSTAL PHARMA, INC., priority 2020, published 2023)

Assays:
SARS2 protease = SARS2 protease (Severe acute respiratory syndrome coronavirus 2, UniProt P0DTD1); assay: SARS-CoV-2 protease inhibition assay (SARS2 FRET protease assay); type: biochemical; conditions: Table E; SARS-CoV-2 protease inhibition; read-out: IC50
Outline: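 SARS-CoV-2 protease (25 nM) was incubated for 30 min at 30 °C with 1.3 μM quenched 5-FAM/TAMRA peptide substrate and compound (3-fold dilutions, 20 μM–1.0 nM). The buffer was 20 mM HEPES-Na pH 7, 120 mM NaCl, 0.4 mM EDTA, 0.01% Triton, 5% glycerol and 4 mM DTT. Fluorescence was read at ex 473 and em 519 nm, and IC50 was derived.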

[1] = molecular target: Norwalk GGI.1 Norovirus protease (Norovirus, UniProt Q83883); assay: Noro-Norwalk FRET protease assay (Norwalk GGI.1); type: biochemical, Norwalk virus; conditions: Table C; FRET protease assay; read-out: Norwalk GGI.1 IC50
Protocol: Viral protease assays: The antiviral activities of inhibitors were determined by FRET (Fluorescence Resonance Energy Transfer) assay. Purified viral protease was incubated with the protease substrate peptide (Edans-DFHLQ/GP-Dabcyl) and inhibitor, and IC50 values were subsequently determined by the fluorescence signals.
The Noro-Norwalk FRET protease assay was performed in 50 mM HEPES-Na pH 8, 50 mM NaCl, 0.4 mM EDTA, 4% glycerol, and 6 mM DTT. A self-quenching peptide substrate [5-FAM]-[…]-[TAMRA] was custom synthesized by Anaspec. Compounds were diluted in 3-fold serial dilutions to final concentrations of 200 μM to 10.2 nM. Noro protease was added to a final concentration of 1-7 μM, depending on the enzyme activity level, and the peptide substrate was added to a final concentration of 10 μM. The assay was incubated 90 minutes at 37° C. and read in a Perkin Elmer Envision with excitation at 473 nm and emission measurement at 519 nm.

[2] = molecular target: HuNV GGII.4 Norovirus protease (Norovirus GII.4 (human norovirus genogroup II genotype 4), UniProt P54634); assay: Norovirus protease FRET assay (HuNV GGII.4); type: biochemical; conditions: Table C; FRET protease assay; read-out: HuNV GGII.4 IC50
HuNV GGII.4 Norovirus protease, sequence (P54634 1009-1189): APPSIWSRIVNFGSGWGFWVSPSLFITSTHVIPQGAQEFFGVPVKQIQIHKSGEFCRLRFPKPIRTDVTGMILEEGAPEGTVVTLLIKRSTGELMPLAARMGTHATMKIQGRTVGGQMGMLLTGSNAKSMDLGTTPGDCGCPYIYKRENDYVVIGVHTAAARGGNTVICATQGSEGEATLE

Norwalk GGI.1 Norovirus protease, sequence (Q83883 1101-1281): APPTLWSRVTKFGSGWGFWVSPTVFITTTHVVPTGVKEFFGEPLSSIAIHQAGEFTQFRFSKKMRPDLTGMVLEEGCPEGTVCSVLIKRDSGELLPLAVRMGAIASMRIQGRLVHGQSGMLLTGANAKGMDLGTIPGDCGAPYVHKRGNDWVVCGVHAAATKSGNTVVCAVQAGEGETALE

Compound | IC50 (SARS2 protease) [µM] | IC50 [1] [µM] | IC50 [2] [µM]
CCNC(=O)OCCN(C)C(=O)CC[C@@H](C=O)NC(=O)[C@H](CC1CCCCC1)NC(=O)OCc1cccc(Cl)c1 (stereo in doubt) [Compound A46, 3-Chlorobenzyl ((12S, 15S)-16-cyclohexyl-12-formyl-8-methyl-4,9,14-trioxo-5-oxa-3,8,13-triazahexadecan-15-yl)carbamate] | > 200 | 8.6 | 28
CN(CCc1cccc(Cl)c1)C(=O)CC[C@@H](C=O)NC(=O)[C@H](CC1CCCCC1)NC(=O)OCc1cccc(Cl)c1 (stereo in doubt) [Compound A33, 3-Chlorobenzyl ((S)-1-(((S)-5-((3-chlorophenethyl)(methyl)amino)-1,5-dioxopentan-2-yl)amino)-3-cyclohexyl-1-oxopropan-2-yl)carbamate] | > 200 | 117 | > 200
O=C[C@H](CCC(=O)N1CCCC(c2ccccc2)C1)NC(=O)[C@H](CC1CCCCC1)NC(=O)OCc1cccc(Cl)c1 (stereo in doubt) [Compound A53, 3-Chlorobenzyl ((2S)-3-cyclohexyl-1-(((2S)-1,5-dioxo-5-(3-phenylpiperidin-1-yl)pentan-2-yl)amino)-1-oxopropan-2-yl)carbamate] | 16.7 | 6.7 | 82.5
CCCCCN(C)C(=O)CC[C@H](NC(=O)[C@H](CC1CCCCC1)NC(=O)OCc1cccc(Cl)c1)C(=O)N(C)OC [Compound A8, 3-chlorobenzyl ((S)-3-cyclohexyl-1-(((S)-1-(methoxy (methyl)amino)-5-(methyl(pentyl)amino)-1,5-dioxopentan-2-yl)amino)-1-oxopropan-2-yl)carbamate] | 89.8 | > 200 | > 200
CCOCCN(C)C(=O)CC[C@@H](C=O)NC(=O)[C@H](CC1CCCCC1)NC(=O)OCc1cccc(Cl)c1 [Compound A10, 3-chlorobenzyl ((S)-3-cyclohexyl-1-(((S)-5-((2-ethoxyethyl)(methyl)amino)-1,5-dioxopentan-2-yl)amino)-1-oxopropan-2-yl)carbamate] | 0.98 | 3.6 | 16.9
CN(CCc1cccc(Cl)c1)C(=O)CC[C@@H](CO)NC(=O)[C@H](CC1CCCCC1)NC(=O)OCc1cccc(Cl)c1 [Compound A24, 3-Chlorobenzyl ((S)-1-(((S)-5-((3-chlorophenethyl)(methyl)amino)-1-hydroxy-5-oxopentan-2-yl)amino)-3-cyclohexyl-1-oxopropan-2-yl)carbamate] | > 200 | > 200 | 123
CC(CN(C)C(=O)CC[C@@H](C=O)NC(=O)[C@H](CC1CCCCC1)NC(=O)OCc1cccc(Cl)c1)c1ccccc1 (stereo in doubt) [Compound A49, 3-Chlorobenzyl ((2S)-3-cyclohexyl-1-(((2S)-5-(methyl(2-phenylpropyl)amino)-1,5-dioxopentan-2-yl)amino)-1-oxopropan-2-yl)carbamate] | > 200 | 15 | 76.7
CCN(CCc1ccccc1)C(=O)CC[C@@H](C=O)NC(=O)[C@H](CC1CCCCC1)NC(=O)OCc1cccc(Cl)c1 (stereo in doubt) [Compound A56, 3-Chlorobenzyl ((S)-3-cyclohexyl-1-(((S)-5-(ethyl(phenethyl)amino)-1,5-dioxopentan-2-yl)amino)-1-oxopropan-2-yl)carbamate] | > 200 | 9.3 | 106
CN(CCc1ccccc1)C(=O)CC[C@@H](C=O)NC(=O)[C@H](CC1CCCCC1)NC(=O)OCc1cccc(Cl)c1 (stereo in doubt) [Compound A36, 3-chlorobenzyl ((S)-3-cyclohexyl-1-(((S)-5-(methyl(phenethyl)amino)-1,5-dioxopentan-2-yl)amino)-1-oxopropan-2-yl)carbamate] | > 200 | 5.2 | 26.9
